Laboratory results taken from publication PMC9837035 (Nature Communications, 2023).
Several values for one entry are separate records, joined by “and”; a condition that tells them apart may be missing. Equal values may be shown once.

Assay: Hematological and hepatic parameters, 2-week repeated oral dosing
Assay type: in vivo
Details: rats
[1] = RK-701 10 mg/kg for two weeks, individual animals 1-5, 10 mg/kg
[2] = RK-701 30 mg/kg for two weeks, individual animals 1-5, 30 mg/kg
[3] = RK-701 100 mg/kg for two weeks, individual animals 1-5, 100 mg/kg

For `Cc1c(C(=O)NC(CCC2CC2)C(=O)Nc2ccc(C#N)cc2)[nH]c2c1C(=O)CC(C)(C)C2` (stereo not drawn) [RK-701], the ALB [1] was 3.3 g/dL and 3.6 g/dL and 3.5 g/dL and 3.9 g/dL, the ALP [1] was 498 IU/L and 658 IU/L and 651 IU/L and 305 IU/L and 323 IU/L and the ALT [1] was 35 IU/L and 24 IU/L and 23 IU/L and 29 IU/L and 31 IU/L. For the same molecule, the AST [1] was 65 IU/L and 68 IU/L and 63 IU/L and 58 IU/L, the EOS [1] was 0.8 x 10^2 cells/μL and 0.5 x 10^2 cells/μL and 0.6 x 10^2 cells/μL and the HCT [1] was 43.6% and 43.5% and 41.3% and 46.1% and 43.9%. The HGB [1] was 15.1 g/dL and 14.9 g/dL and 14.2 g/dL and 16.2 g/dL and 15.2 g/dL, the LUC [1] was 0.5 x 10^2 cells/μL and 0.3 x 10^2 cells/μL and 0.2 x 10^2 cells/μL and 0.6 x 10^2 cells/μL and the Lymph [1] was 60.7 x 10^2 cells/μL and 48.8 x 10^2 cells/μL and 34.7 x 10^2 cells/μL and 52.6 x 10^2 cells/μL and 60.4 x 10^2 cells/μL. For the same molecule, the MCH [1] was 20.6 pg and 20.7 pg and 19.3 pg and 20.9 pg and 20.5 pg, the MCHC [1] was 34.6 g/dL and 34.4 g/dL and 35.1 g/dL and 34.7 g/dL and the MCV [1] was 59.5 fL and 60.2 fL and 56.2 fL and 59.6 fL and 59.1 fL. The MONO [1] was 1 x 10^2 cells/μL and 0.9 x 10^2 cells/μL and 0.6 x 10^2 cells/μL and 1.2 x 10^2 cells/μL, the NEUT [1] was 8.2 x 10^2 cells/μL and 4.4 x 10^2 cells/μL and 6.1 x 10^2 cells/μL and 5.2 x 10^2 cells/μL and 8.1 x 10^2 cells/μL and the PL [1] was 141 mg/dL and 106 mg/dL and 124 mg/dL and 99 mg/dL and 133 mg/dL. For the same molecule, the PLT [1] was 127.6 x 10^4 cells/μL and 123.4 x 10^4 cells/μL and 117.1 x 10^4 cells/μL and 123.6 x 10^4 cells/μL and 146.5 x 10^4 cells/μL, the RBC [1] was 732 x 10^4 cells/μL and 722 x 10^4 cells/μL and 735 x 10^4 cells/μL and 773 x 10^4 cells/μL and 743 x 10^4 cells/μL and the Retic [1] was 223.8 x 10^9 cells/L and 153 x 10^9 cells/L and 208.3 x 10^9 cells/L and 171.7 x 10^9 cells/L and 194.5 x 10^9 cells/L. For the same molecule, the T-CHO [1] was 87 mg/dL and 57 mg/dL and 73 mg/dL and 64 mg/dL, the TG [1] was 26 mg/dL and 11 mg/dL and 19 mg/dL and 14 mg/dL and 48 mg/dL and the TP [1] was 5.8 g/dL and 6.1 g/dL and 5.9 g/dL and 6.4 g/dL. The WBC [1] was 71.3 x 10^2 cells/μL and 55 x 10^2 cells/μL and 42.1 x 10^2 cells/μL and 59.6 x 10^2 cells/μL and 70.9 x 10^2 cells/μL, the ALB [2] was 3.3 g/dL and 3.6 g/dL and 3.5 g/dL and the ALP [2] was 418 IU/L and 310 IU/L and 628 IU/L and 586 IU/L and 615 IU/L. The ALT [2] was 28 IU/L and 21 IU/L and 29 IU/L and 25 IU/L, the AST [2] was 71 IU/L and 66 IU/L and 59 IU/L and 54 IU/L and 70 IU/L and the EOS [2] was 0.4 x 10^2 cells/μL and 0.5 x 10^2 cells/μL and 0.7 x 10^2 cells/μL and 0.3 x 10^2 cells/μL. The HCT [2] was 41.9% and 44.7% and 43.2% and 41.2% and 41.8%, the HGB [2] was 13.9 g/dL and 15.2 g/dL and 14.7 g/dL and 14.2 g/dL and 14.4 g/dL and the LUC [2] was 0.5 x 10^2 cells/μL and 0.2 x 10^2 cells/μL and 0.6 x 10^2 cells/μL and 0.4 x 10^2 cells/μL. For the same molecule, the Lymph [2] was 67.9 x 10^2 cells/μL and 38.8 x 10^2 cells/μL and 53.8 x 10^2 cells/μL and 52 x 10^2 cells/μL and 52.5 x 10^2 cells/μL, the MCH [2] was 18.8 pg and 19.5 pg and 21.3 pg and 20.8 pg and the MCHC [2] was 33.3 g/dL and 33.9 g/dL and 34.1 g/dL and 34.4 g/dL. The MCV [2] was 56.4 fL and 57.4 fL and 62.5 fL and 56.7 fL and 60.3 fL, the MONO [2] was 1 x 10^2 cells/μL and 0.8 x 10^2 cells/μL and 0.9 x 10^2 cells/μL and the NEUT [2] was 5.1 x 10^2 cells/μL and 8.7 x 10^2 cells/μL and 4.3 x 10^2 cells/μL and 6.5 x 10^2 cells/μL and 8.9 x 10^2 cells/μL. The PL [2] was 116 mg/dL and 127 mg/dL and 128 mg/dL and 100 mg/dL and 113 mg/dL, the PLT [2] was 120.9 x 10^4 cells/μL and 129.5 x 10^4 cells/μL and 130.8 x 10^4 cells/μL and 134.3 x 10^4 cells/μL and 95.6 x 10^4 cells/μL and the RBC [2] was 742 x 10^4 cells/μL and 779 x 10^4 cells/μL and 692 x 10^4 cells/μL and 726 x 10^4 cells/μL and 693 x 10^4 cells/μL. For the same molecule, the Retic [2] was 276.8 x 10^9 cells/L and 221.1 x 10^9 cells/L and 186.9 x 10^9 cells/L and 199.2 x 10^9 cells/L and 253.8 x 10^9 cells/L, the T-CHO [2] was 63 mg/dL and 69 mg/dL and 62 mg/dL and 58 mg/dL and 68 mg/dL and the TG [2] was 16 mg/dL and 19 mg/dL and 25 mg/dL and 12 mg/dL and 11 mg/dL. For the same molecule, the TP [2] was 5.7 g/dL and 6.1 g/dL and 6 g/dL and 5.8 g/dL, the WBC [2] was 74.9 x 10^2 cells/μL and 49.1 x 10^2 cells/μL and 60.2 x 10^2 cells/μL and 60.7 x 10^2 cells/μL and 63.2 x 10^2 cells/μL and the ALB [3] was 3.4 g/dL and 3.3 g/dL and 3.2 g/dL and 3.5 g/dL. For the same molecule, the ALP [3] was 450 IU/L and 547 IU/L and 566 IU/L and 866 IU/L and 399 IU/L, the ALT [3] was 37 IU/L and 26 IU/L and 28 IU/L and 29 IU/L and 25 IU/L and the AST [3] was 63 IU/L and 59 IU/L and 68 IU/L and 70 IU/L and 58 IU/L. For the same molecule, the EOS [3] was 0.3 x 10^2 cells/μL and 0.6 x 10^2 cells/μL and 0.8 x 10^2 cells/μL and 0.7 x 10^2 cells/μL, the HCT [3] was 43.3% and 44.1% and 41.3% and 42.5% and 43.5% and the HGB [3] was 14.8 g/dL and 15 g/dL and 14.4 g/dL and 14.6 g/dL. For the same molecule, the LUC [3] was 0.4 x 10^2 cells/μL and 0.5 x 10^2 cells/μL and 0.3 x 10^2 cells/μL and 0.9 x 10^2 cells/μL, the Lymph [3] was 61.6 x 10^2 cells/μL and 55.7 x 10^2 cells/μL and 66.9 x 10^2 cells/μL and 49.9 x 10^2 cells/μL and 88.7 x 10^2 cells/μL and the MCH [3] was 20.2 pg and 20.4 pg and 20.6 pg and 20.1 pg. For the same molecule, the MCHC [3] was 34.3 g/dL and 34 g/dL and 34.8 g/dL and 34.4 g/dL, the MCV [3] was 59 fL and 60.2 fL and 59.1 fL and 58.3 fL and 58.6 fL and the MONO [3] was 1.3 x 10^2 cells/μL and 0.7 x 10^2 cells/μL and 1.6 x 10^2 cells/μL and 1 x 10^2 cells/μL and 1.4 x 10^2 cells/μL. The NEUT [3] was 7.8 x 10^2 cells/μL and 2.7 x 10^2 cells/μL and 9.7 x 10^2 cells/μL and 9.5 x 10^2 cells/μL and 9.3 x 10^2 cells/μL, the PL [3] was 153 mg/dL and 118 mg/dL and 132 mg/dL and 110 mg/dL and 173 mg/dL and the PLT [3] was 110.2 x 10^4 cells/μL and 121.4 x 10^4 cells/μL and 96 x 10^4 cells/μL and 122.9 x 10^4 cells/μL and 114.3 x 10^4 cells/μL. For the same molecule, the RBC [3] was 733 x 10^4 cells/μL and 700 x 10^4 cells/μL and 729 x 10^4 cells/μL and 744 x 10^4 cells/μL, the Retic [3] was 130.2 x 10^9 cells/L and 149.9 x 10^9 cells/L and 250.7 x 10^9 cells/L and 185.7 x 10^9 cells/L and 177.3 x 10^9 cells/L and the T-CHO [3] was 94 mg/dL and 67 mg/dL and 91 mg/dL and 72 mg/dL and 116 mg/dL. For the same molecule, the TG [3] was 26 mg/dL and 19 mg/dL and 9 mg/dL and 8 mg/dL and 32 mg/dL, the TP [3] was 5.6 g/dL and 5.8 g/dL and 5.9 g/dL and 5.7 g/dL and 6.2 g/dL and the WBC [3] was 71.5 x 10^2 cells/μL and 60.2 x 10^2 cells/μL and 79.6 x 10^2 cells/μL and 61.2 x 10^2 cells/μL and 101.3 x 10^2 cells/μL. The “effect on hematological and hepatic parameters” value (oral, up to 100 mg/kg, two weeks) was “no serious effect”, the ALB (two weeks, 10 mg/kg) was 3.6 ± 0.2 g/dL and the ALP (two weeks, 10 mg/kg) was 487 ± 170 IU/L. For the same molecule, the ALT (two weeks, 10 mg/kg) was 28 ± 5 IU/L, the AST (two weeks, 10 mg/kg) was 64 ± 4 IU/L and the EOS (two weeks, 10 mg/kg) was 0.6 ± 0.1 x 102 cells/μL.
